Data reported in patent US9790203B2, “Inhibitor compounds of phosphodiesterase type 10A” (ABBVIE DEUTSCHLAND GMBH & CO. KG, priority 2012, dated 2017).
pIC50: −log10 of the molar value.

How the values were obtained:
[1] = Microsomal half-life / microsomal clearance, rat liver microsomes; assay type: in vitro ADME; details: 0.5 μM test substance, 0.25 mg microsomal protein/ml, pH 7.4, 37° C.
Method: (§1) The metabolic stability of the compounds of the invention was determined in the following assay.
(§2) The test substances were incubated in a concentration of 0.5 μM as follows:
(§3) 0.5 μM test substance are preincubated together with liver microsomes from different species (from rat, human or other species) (0.25 mg of microsomal protein/ml) in 0.05 M potassium phosphate buffer of pH 7.4 in microtiter plates at 37° C. for 5 min. The reaction is started by adding NADPH (1 mg/mL). After 0, 5, 10, 15, 20 and 30 min, 50 μl aliquots are removed, and the reaction is immediately stopped and cooled with the same volume of acetonitrile. The samples are frozen until analyzed. The remaining concentration of undegraded test substance is determined by MSMS. The half-life (T1/2) is determined from the gradient of the signal of test substance/unit time plot, it being possible to calculate the half-life of the test substance, assuming first order kinetics, from the decrease in the concentration of the compound with time. The microsomal clearance (mCl) is calculated from mCl=ln 2/T1/2/(content of microsomal protein in mg/ml)×1000 [ml/min/mg] (modified from references: Di, The Society for Biomoleculur Screening, 2003, 453-462; Obach, DMD, 1999 vol 27. N 11, 1350-1359).

[2] = Microsomal half-life / microsomal clearance, human liver microsomes; assay type: in vitro ADME; details: 0.5 μM test substance, 0.25 mg microsomal protein/ml, pH 7.4, 37° C.
Method: as §1, §2, §3

[3] = biological target: PDE10A (Homo sapiens (Human), UniProt Q9Y233); assay: Measurement of PDE activity (HTRF cAMP kit, recombinant PDE); assay type: biochemical; details: recombinant PDE10, 20 nM cyclic nucleotide substrate, 60 minutes at 29 C
Sequence of PDE10A (Q9Y233 whole entry, species assumed, canonical isoform): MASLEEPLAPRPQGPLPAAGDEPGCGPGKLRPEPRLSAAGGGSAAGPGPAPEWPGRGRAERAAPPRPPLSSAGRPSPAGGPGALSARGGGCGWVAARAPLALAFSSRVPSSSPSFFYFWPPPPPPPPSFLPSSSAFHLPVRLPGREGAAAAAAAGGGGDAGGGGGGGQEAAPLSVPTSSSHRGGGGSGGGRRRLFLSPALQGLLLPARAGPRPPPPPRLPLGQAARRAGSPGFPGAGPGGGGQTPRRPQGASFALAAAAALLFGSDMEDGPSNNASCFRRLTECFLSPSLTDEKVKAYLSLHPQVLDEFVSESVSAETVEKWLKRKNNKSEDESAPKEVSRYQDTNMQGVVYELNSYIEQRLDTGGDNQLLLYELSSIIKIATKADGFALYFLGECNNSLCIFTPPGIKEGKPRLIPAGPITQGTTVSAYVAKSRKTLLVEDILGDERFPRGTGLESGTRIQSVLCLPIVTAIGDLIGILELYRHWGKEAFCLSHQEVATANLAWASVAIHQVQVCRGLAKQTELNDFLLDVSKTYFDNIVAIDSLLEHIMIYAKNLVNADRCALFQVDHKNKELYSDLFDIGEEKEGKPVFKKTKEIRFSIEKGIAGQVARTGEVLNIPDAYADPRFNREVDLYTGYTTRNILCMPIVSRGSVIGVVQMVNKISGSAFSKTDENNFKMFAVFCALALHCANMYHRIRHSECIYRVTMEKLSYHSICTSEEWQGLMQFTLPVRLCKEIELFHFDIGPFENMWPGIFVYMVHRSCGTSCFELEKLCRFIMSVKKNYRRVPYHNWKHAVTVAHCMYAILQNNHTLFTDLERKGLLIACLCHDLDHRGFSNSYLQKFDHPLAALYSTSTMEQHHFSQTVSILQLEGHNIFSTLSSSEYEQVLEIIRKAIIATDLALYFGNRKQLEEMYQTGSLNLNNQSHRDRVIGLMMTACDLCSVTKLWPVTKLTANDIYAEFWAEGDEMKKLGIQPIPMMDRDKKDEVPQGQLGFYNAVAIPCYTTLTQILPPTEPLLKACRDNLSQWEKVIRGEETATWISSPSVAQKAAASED
Method: The recombinant PDE proteins are used in in vitro enzymatic reaction for measurement of PDE activity. These recombinant proteins, including PDE10A (human, rat and mouse PDE10) and isoforms of PDEs 1, 3, 4, and 5, were purchased from commercial vendor BPS Bioscience. The enzymatic activity of PDEs was determined by cAMP measurement kit from CisBio (IBA) using HTRF technology.
The PDE enzymatic reaction was carried out in assay buffer (20 mM Tris-HCl pH7.5, 10 mM MgCl2, 0.1% bovine serum albumin) containing enzyme and substrate. […] The substrate cyclic nucleotide (cAMP or cGMP) concentration used in the assay was 20 nM for PDE10, and 100 nM for other PDEs. The inhibitory effect of compound was determined by incubating various concentration of inhibitor in the enzymatic assay. […] Next, the compound at varying concentration was mixed with PDE enzyme. The reaction was initiated by addition of cyclic nucleotide substrate, and incubated for 60 minutes at 29 C. The reaction was stopped by addition of lysis buffer from assay kit. The cAMP-d2 and anti-cAMP cryptate in the lysis buffer detected the level of cAMP left from the PDE hydrolysis reaction. […] Thus, IC50 value of inhibitor can be obtained by plotting inhibitor concentration against PDE activity at that concentration.

Row | SMILES | Rat mCl [1] | Human mCl [2] | pIC50 [3]
1 | Cn1cc(-c2ccncc2)c(-c2ccc(C#Cc3ccc4cc[nH]c4n3)cc2)n1 [Example 15, 6-[2-[4-[1-methyl-4-(4-pyridyl)pyrazol-3-yl]phenyl]ethynyl]-1H-pyrrolo[2,3-b]pyridine] | ++ (<100 μl min^−1 mg^−1) | ++ (<100 μl min^−1 mg^−1) | > 7.00
2 | Cn1cc(-c2ccncc2)c(-c2ccc(C#Cc3ccc(F)cn3)cc2)n1 [Example 5, 5-Fluoro-2-((4-(1-methyl-4-(pyridin-4-yl)-1H-pyrazol-3-yl)phenyl)ethynyl)pyridine] | ++ (<100 μl min^−1 mg^−1) | ++ (<100 μl min^−1 mg^−1) | > 7.00
3 | CCCn1cc(C#Cc2ccc(-c3nn(C)cc3-c3ccncc3)cc2)cn1 [Example 4, 4-(1-methyl-3-(4-((1-propyl-1H-pyrazol-4-yl)ethynyl)phenyl)-1H-pyrazole-4-yl)pyridine] |  | ++ (<100 μl min^−1 mg^−1) | 
4 | Cn1cc(-c2ccncc2)c(-c2ccc(C#Cc3nccs3)cc2)n1.O=C(O)C(F)(F)F [Example 17, 2-[2-[4-[1-methyl-4-(4-pyridyl)pyrazol-3-yl]phenyl]ethynyl]thiazole; 2,2,2-trifluoroacetic acid] | ++ (<100 μl min^−1 mg^−1) | ++ (<100 μl min^−1 mg^−1) | 6.70 to 7.00
5 | COc1cc(-c2nn(C)cc2-c2ccncc2)ccc1C#Cc1cccc(C)n1.O=C(O)C(F)(F)F [Example 32, 2-[2-[2-methoxy-4-[1-methyl-4-(4-pyridyl)pyrazol-3-yl]phenyl]ethynyl]-6-methylpyridine; 2,2,2-trifluoroacetic acid] | + (100-220 μl min^−1 mg^−1) | ++ (<100 μl min^−1 mg^−1) | > 7.00
6 | Cc1cccc(C#Cc2ccc(-c3c(-c4ccncc4)cnn3C)cc2)n1 [Example 26, 2-methyl-6-[2-[4-[2-methyl-4-(4-pyridyl)pyrazol-3-yl]phenyl]ethynyl]pyridine] | ++ (<100 μl min^−1 mg^−1) | ++ (<100 μl min^−1 mg^−1) | > 7.00
7 | Cc1cccc(C#Cc2ccc(-c3nn(C)cc3-c3ccnnc3)cc2)n1 [Example 28, 4-[1-methyl-3-[4-[2-(6-methyl-2-pyridyl)ethynyl]phenyl]pyrazol-4-yl]pyridazine] |  |  | > 7.00
8 | COc1cccnc1C#Cc1ccc(-c2nn(C)cc2-c2ccncc2)cc1 [Example 21, 3-methoxy-2-[2-[4-[1-methyl-4-(4-pyridyl)pyrazol-3-yl]phenyl]ethynyl]pyridine] | ++ (<100 μl min^−1 mg^−1) | ++ (<100 μl min^−1 mg^−1) | > 7.00
9 | Cn1cc(-c2ccncc2)c(-c2ccc(C#Cc3nccn3C)cc2)n1 [Example 7, 4-(1-methyl-3-(4-((1-methyl-1H-imidazol-2-yl)ethynyl)phenyl)-1H-pyrazole-4-yl)pyridine] | ++ (<100 μl min^−1 mg^−1) | ++ (<100 μl min^−1 mg^−1) | > 7.00
10 | Cc1cccc(C#Cc2c(-c3ccncc3)nc3n2CCC3)n1.O=C(O)C(F)(F)F [Example 19, 3-[2-(6-methyl-2-pyridyl)ethynyl]-2-(4-pyridyl)-6,7-dihydro-5H-pyrrolo[1,2-a]imidazole; 2,2,2-trifluoroacetic acid] | + (100-220 μl min^−1 mg^−1) | + (100-220 μl min^−1 mg^−1) | 
11 | Cc1cccc(C#Cc2ccc(-c3c(-c4ccncc4)nc4n3CCC4)cc2)n1 [Example 23, 3-[4-[2-(6-methyl-2-pyridyl)ethynyl]phenyl]-2-(4-pyridyl)-6,7-dihydro-5H-pyrrolo[1,2-a]imidazole] | ++ (<100 μl min^−1 mg^−1) | ++ (<100 μl min^−1 mg^−1) | 6.70 to 7.00
12 | COc1cccc(C#Cc2ccc(-c3nn(C)cc3-c3ccncc3)cc2)n1.O=C(O)C(F)(F)F [Example 20, 2-methoxy-6-[2-[4-[1-methyl-4-(4-pyridyl)pyrazol-3-yl]phenyl]ethynyl]pyridine; 2,2,2-trifluoroacetic acid] | ++ (<100 μl min^−1 mg^−1) | ++ (<100 μl min^−1 mg^−1) | > 7.00
13 | Cc1cccc(C#Cc2ccc(-c3nn(C)cc3-c3cncnc3)cc2)n1 [Example 25, 5-[1-methyl-3-[4-[2-(6-methyl-2-pyridyl)ethynyl]phenyl]pyrazol-4-yl]pyrimidine] |  |  | 6.70 to 7.00
14 | Cc1cccc(C#Cc2ccc(-c3nn(C)cc3-c3ccnn3C)cc2)n1.Cl [Example 27, 2-methyl-6-[2-[4-[1-methyl-4-(2-methylpyrazol-3-yl)pyrazol-3-yl]phenyl]ethynyl]-pyridine hydrochloride] | + (100-220 μl min^−1 mg^−1) | ++ (<100 μl min^−1 mg^−1) | 6.70 to 7.00
15 | Cn1cc(-c2ccncc2)c(-c2ccc(C#Cc3ccc4ncccc4n3)cc2)n1 [Example 13, 2-[2-[4-[1-methyl-4-(4-pyridyl)pyrazol-3-yl]phenyl]ethynyl]-1,5-naphthyridine] | ++ (<100 μl min^−1 mg^−1) | ++ (<100 μl min^−1 mg^−1) | > 7.00
16 | Cc1cccc(C#Cc2ccc(-c3nn(C)cc3-c3ccncc3)cc2)n1 [Example 9, 2-Methyl-6-((4-(1-methyl-4-(pyridin-4-yl)-1H-pyrazol-3-yl)phenyl)ethynyl)pyridine] | ++ (<100 μl min^−1 mg^−1) | ++ (<100 μl min^−1 mg^−1) | > 7.00
17 | Cn1cc(-c2ccncc2)c(-c2ccc(C#Cc3ccc4ccccc4n3)cc2)n1 [Example 12, 2-((4-(1-methyl-4-(pyridin-4-yl)-1H-pyrazol-3-yl)phenyl)ethynyl)quinoline] | ++ (<100 μl min^−1 mg^−1) | ++ (<100 μl min^−1 mg^−1) | > 7.00
18 | Cn1cc(-c2ccncc2)c(-c2ccc(C#Cc3cnc4ccccc4n3)cc2)n1.O=C(O)C(F)(F)F [Example 18, 2-[2-[4-[1-methyl-4-(4-pyridyl)pyrazol-3-yl]phenyl]ethynyl]quinoxaline; 2,2,2-trifluoroacetic acid] | ++ (<100 μl min^−1 mg^−1) | ++ (<100 μl min^−1 mg^−1) | > 7.00
19 | Cn1cc(-c2ccncc2)c(-c2ccc(C#Cc3cn4ccccc4n3)cc2)n1 [Example 14, 2-[2-[4-[1-methyl-4-(4-pyridyl)pyrazol-3-yl]phenyl]ethynyl]imidazo[1,2-a]pyridine] | ++ (<100 μl min^−1 mg^−1) | ++ (<100 μl min^−1 mg^−1) | > 7.00
20 | Cc1cccnc1C#Cc1ccc(-c2nn(C)cc2-c2ccncc2)cc1 [Example 6, 3-Methyl-2-((4-(1-methyl-4-(pyridin-4-yl)-1H-pyrazol-3-yl)phenyl)ethynyl)pyridine] | ++ (<100 μl min^−1 mg^−1) | ++ (<100 μl min^−1 mg^−1) | > 7.00
21 | Cc1ccnc(C#Cc2ccc(-c3nn(C)cc3-c3ccncc3)cc2)c1 [Example 8, 4-Methyl-2-((4-(1-methyl-4-(pyridin-4-yl)-1H-pyrazol-3-yl)phenyl)ethynyl)pyridine] | ++ (<100 μl min^−1 mg^−1) | ++ (<100 μl min^−1 mg^−1) | > 7.00
22 | Cc1cccc(C#Cc2ccc(-c3nn(C)cc3-c3cn[nH]c3)cc2)n1 [Example 24, 2-methyl-6-[2-[4-[1-methyl-4-(1H-pyrazol-4-yl)pyrazol-3-yl]phenyl]ethynyl]pyridine] | ++ (<100 μl min^−1 mg^−1) | ++ (<100 μl min^−1 mg^−1) | 6.30 to 6.70
23 | COc1ccc(-c2cn(C)nc2-c2ccc(C#Cc3cccc(C)n3)cc2)cc1 [Example 31, 2-[2-[4-[4-(4-methoxyphenyl)-1-methyl-pyrazol-3-yl]phenyl]ethynyl]-6-methylpyridine; 2,2,2-trifluoroacetic acid] |  |  | 6.70 to 7.00
24 | Cc1ccc(C#Cc2ccc(-c3nn(C)cc3-c3ccncc3)cc2)nc1 [Example 3, 5-methyl-2-((4-(1-methyl-4-(pyridin-4-yl)-1H-pyrazol-3-yl)phenyl)ethynyl)pyridine] | ++ (<100 μl min^−1 mg^−1) | ++ (<100 μl min^−1 mg^−1) | > 7.00
25 | Cc1cc(C#Cc2ccc(-c3nn(C)cc3-c3ccncc3)cc2)nc2ccccc12 [Example 16, 4-methyl-2-[2-[4-[1-methyl-4-(4-pyridyl)pyrazol-3-yl]phenyl]ethynyl]quinoline] | ++ (<100 μl min^−1 mg^−1) | ++ (<100 μl min^−1 mg^−1) | > 7.00
